This note sets out measurements from PMC10759735, “The diverse functions of Mu-class Glutathione S-transferase HrGSTm1 during the development of Hyalomma rufipes with a focus on the detoxification metabolism of cyhalothrin” (Parasites & Vectors, 2024).

Usually Km stands for the substrate concentration at which the rate is half of its maximum.

The test system of this experiment is T1, rHrGSTm1.
T1 construct: gene HrGSTm1; full-length CDS (672-bp ORF); 223 aa in abstract, 233; recombinant 44 kDa, no tag removal described
Briefly: GSH conjugation, absorbance at […] nm, Michaelis-Menten fit. The experiment is classed as biochemical, Hyalomma rufipes. The following applies: 5 mM GSH; CDNB varied 0.125-2 mM (printed unit μM lies far below this range, possibly meant mM); abstract calls glutathione the substrate.

Take `O=[N+]([O-])c1ccc(Cl)c([N+](=O)[O-])c1` [CDNB, 1-Chlom-2,4-Dinitrobenzene]: the Km is 2.21 ± 0.76 µM.
